{"source": "patent US12697343B2", "about": "“Intravenous istaroxime for the treatment of acute heart failure” (Seismic Pharmaceuticals Operations LLC, priority 2021, dated 2026)", "key": {"[1]": {"test_system": "patients hospitalized for acute heart failure (AHF)", "set-up": "species or system human", "settings": "in vivo", "protocol": "The primary efficacy endpoint was the change from baseline to 24 h after the start of the infusion in the E/e ratio assessed by tissue Doppler echocardiography. Secondary endpoints included the change from baseline to 24 h of other echocardiography parameters: LVEF, left ventricular end-systolic and end-diastolic volumes, stroke volume index, E, A, E/A ratio, and S′: changes in dyspnoea by visual analogue scale (VAS) and in NT-proBNP from baseline to 24 h: proportion of patients with hospital readmissions or emergency visits for cardiovascular reasons by day 30; proportion of patients with episodes of in-hospital worsening heart failure to day 4, and length of stay. […] Safety endpoints were assessed throughout the study and included: incidence of adverse events (AEs): change in vital signs and in 12-lead electrocardiographic (ECG) parameters: incidence of clinically or haemodynamically significant episodes of supraventricular or ventricular arrhythmias detected by continuous ECG monitoring: standard laboratory parameters: renal function: cardiac troponin T (cTnT): incidence of cTnT elevations, and mortality at day 30. […]\nThe study design included a 24 h screening period, a 24 h study drug infusion phase (day 1), a post-treatment phase (days 2-4), and a follow-up visit at day 30 (FIG. 5). […] AEs were monitored throughout the duration of the study. […]"}, "[2]": {"test_system": "patients hospitalized for acute heart failure (AHF)", "set-up": "species or system human", "settings": "in vivo", "protocol": "The primary efficacy endpoint was the change from baseline to 24 h after the start of the infusion in the E/e ratio assessed by tissue Doppler echocardiography. Secondary endpoints included the change from baseline to 24 h of other echocardiography parameters: LVEF, left ventricular end-systolic and end-diastolic volumes, stroke volume index, E, A, E/A ratio, and S′: changes in dyspnoea by visual analogue scale (VAS) and in NT-proBNP from baseline to 24 h: proportion of patients with hospital readmissions or emergency visits for cardiovascular reasons by day 30; proportion of patients with episodes of in-hospital worsening heart failure to day 4, and length of stay. In-hospital worsening heart failure was defined by the need to increase the dose or reinitiate intravenous therapy with diuretics and/or other inotropic agents to day 4. Safety endpoints were assessed throughout the study and included: incidence of adverse events (AEs): change in vital signs and in 12-lead electrocardiographic (ECG) parameters: incidence of clinically or haemodynamically significant episodes of supraventricular or ventricular arrhythmias detected by continuous ECG monitoring: standard laboratory parameters: renal function: cardiac troponin T (cTnT): incidence of cTnT elevations, and mortality at day 30. […]", "remark": "listed apart in the source"}, "[3]": {"test_system": "patients hospitalized for acute heart failure (AHF)", "test": "Adverse events, serious adverse events, laboratory safety and mortality to day 30", "assay_type": "in vivo, human", "protocol": "The primary efficacy endpoint was the change from baseline to 24 h after the start of the infusion in the E/e ratio assessed by tissue Doppler echocardiography. Secondary endpoints included the change from baseline to 24 h of other echocardiography parameters: LVEF, left ventricular end-systolic and end-diastolic volumes, stroke volume index, E, A, E/A ratio, and S′: changes in dyspnoea by visual analogue scale (VAS) and in NT-proBNP from baseline to 24 h: proportion of patients with hospital readmissions or emergency visits for cardiovascular reasons by day 30; proportion of patients with episodes of in-hospital worsening heart failure to day 4, and length of stay. In-hospital worsening heart failure was defined by the need to increase the dose or reinitiate intravenous therapy with diuretics and/or other inotropic agents to day 4. Safety endpoints were assessed throughout the study and included: incidence of adverse events (AEs): change in vital signs and in 12-lead electrocardiographic (ECG) parameters: incidence of clinically or haemodynamically significant episodes of supraventricular or ventricular arrhythmias detected by continuous ECG monitoring: standard laboratory parameters: renal function: cardiac troponin T (cTnT): incidence of cTnT elevations, and mortality at day 30. Elevations in cTnT were considered significant if they were >50% or >20% from baseline values, for patients with cTnT below or above the 99% upper reference limit at baseline, respectively.\nThe study design included a 24 h screening period, a 24 h study drug infusion phase (day 1), a post-treatment phase (days 2-4), and a follow-up visit at day 30 (FIG. 5). Patients could be enrolled at any time after admission. The use of oral medications was permitted during the study with the exception of digoxin. Intravenous diuretics were permitted during the treatment period at stable doses, unless changes were required due to clinically relevant variations of the patient's condition. If treatment with an inotrope was clinically necessary during the infusion period, the investigational product was discontinued. Echocardiography was performed according to international standards at screening, baseline (just before starting study drug infusion), 6, 24 h (just before infusion end), and 48 h after infusion start. Echocardiographic measurements at baseline, 6, 24, and 48 h were evaluated in a blinded fashion by a CoreLab located at the University and Civil Hospital of Brescia, Italy. E/e′ ratio was calculated as the ratio between the peak early diastolic mitral flow velocity (E wave) and the mean of the annular lateral (e′ lateral) and septal (e′ septal) velocities, according to standard guidelines.^20 Intraobserver and interobserver variability in E/e′ measurement was tested on the 15% of the recordings and is shown in FIG. 6. Self-reported dyspnoea was assessed using a 100 mm VAS, with zero representing the worst level of dyspnoea and 10 the best breathing condition. […] Serial measurements of NT-proBNP throughout the study were analyzed by a central laboratory (Elecsys® proBNP II, Roche®, Basel, Switzerland). Samples for cTnT were taken at baseline, 3, 6, 12, 24, 48, and 72 h and on day 30, and were analyzed by a core laboratory (Elecsys® high-sensitivity assay, Roche®, Basel, Switzerland). AEs were monitored throughout the duration of the study. […]"}, "[4]": {"settings": "istaroxime 1.0 μg/Kg/min (n = 40), 30-day follow-up period"}}, "note": "Where a name gives a salt, the structure may show the parent alone.", "data": [{"smiles": "C[C@]12CCC(=NOCCN)C[C@@H]1C(=O)C[C@@H]1[C@@H]2CC[C@]2(C)C(=O)CC[C@@H]12", "note": "[Istaroxime, (E,Z)-3-((2-aminoethoxy)imino)androstane-6,17-dione hydrochloride]", "values": [{"measurement": "cardiac troponin absolute values", "setting": "[1]", "value": "No significant changes"}, {"measurement": "Renal function measured by eGFR", "setting": "[2]", "value": "generally increased"}, {"measurement": "Mortality within the 30-day study period", "setting": "[3]; 1.0 μg/kg/min group, cardiogenic shock", "value": "One patient died"}, {"measurement": "rate of SAEs", "setting": "[3]; in vivo", "value": "did not show meaningful differences"}, {"measurement": "rate of injection site reactions", "setting": "[3]; in vivo, iv", "value": "high"}, {"measurement": "Serious adverse events: Cardiac death", "setting": "[3]; [4]", "value": "1 number of patients"}, {"measurement": "Serious adverse events: Cardiac death, percent of patients", "setting": "[3]; [4]", "value": "(2.5) %"}]}]}
